Experimental data reported in US11591297B2, “Compound having PD-L1 expression-suppressing action” (TOHOKU UNIVERSITY, priority 2019, dated 2023).

System: human IL-2 promoter
Assay: IL-2luc activity (luciferase under control of IL-2 promoter) of Jurkat cells co-cultured with IFN-γ-treated A549 cells
Assay type: cell-based
Settings: control (DMSO) IFN-γ(−) defined as 100%, control IFN-γ(+) 54.5
Procedure: The pIL-2luc obtained by the insertion of a human IL-2 promoter sequence (−945 to 53) into the multiple cloning site of pGL-3 vector basic (Promega) was preliminarily transfected into Jurkat cells. PMA and PHA-L were added into the Jurkat cells and the cells were pre-cultured. Simultaneously, IFN-γ was added into A549 cells and the cells were pre-cultured. The supernatants of each culture liquid at the time of the pre-culture of each cell were removed, the culture liquids were co-cultured in new medium. The luciferase activity of the co-cultured Jurkat cells was measured. Each test compound was added into the A549 cell culture liquid during the pre-culture.
A549 cells were suspended in DMEM medium at a concentration of 3×10^5 cells/mL to prepare a suspension, and the suspension was dispensed into a T25 flask in an amount of 5 mL and cultured
Separately, 5 μg of pIL-2luc DNA and 15 μL of TransIT-Jurkat reagent (Takara Bio: Cat #V2124) were added into 500 μL of serum-free medium, and the medium was allowed to stand at room temperature for 15 minutes. […]
LAS in Luciferase Assay System was dissolved in LAB to prepare a luciferase reagent. 10 μL of the sample was mixed with 50 μL of the luciferase reagent, and the chemiluminescence (Relative Luminescence Intensity: RLU) of the sample was measured using GloMax20/20 (Promega). […]

SMILES: O=C(Nc1ccc(Oc2ccc(S(F)(F)(F)(F)F)cc2)cc1)C1CCCN(C(=O)c2ccc([N+](=O)[O-])cc2)C1 (centres unmarked) [Example 5, 1-(4-Nitrobenzoyl)-N-(4-(4-(pentafluorosulfanyl)phenoxy)phenyl)piperidine-3-carboxamide]
- activity at 0.5 µM (0.5 μM): 63.5%
- activity at 1 µM (1 μM): 85.9%
